# Calls of active or inactive are those of the source.
# Experiments:
# [1] = inhibitors of firefly luciferase expression or activity, dose response, H4 neuroglioma cells, luminescence (AID 1990); assay type: functional, cell-based
# [2] = Luminescence Cell-Based Dose Response HTS to Identify Inhibitors of 5'UTR Stem-Loop Driven Prion Protein mRNA Translation in H4 Neuroglioblastoma Cells. [Related pubchem assays: 1827 (Project Summary), 1813 (Primary HTS)]; assay type: functional
# [3] = inhibitors of SNCA 5'UTR-driven reporter translation, confirmation, H4 neuroglioma cells, luminescence (AID 1988); assay type: functional, cell-based
# Cytochrome P450 2D6 = Cytochrome P450 2D6 (Homo sapiens, UniProt P10635);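 also: CYP2D6 member of a cytochrome P450 panel assay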
# Chain of Cytochrome P450 2D6 (P10635 whole entry): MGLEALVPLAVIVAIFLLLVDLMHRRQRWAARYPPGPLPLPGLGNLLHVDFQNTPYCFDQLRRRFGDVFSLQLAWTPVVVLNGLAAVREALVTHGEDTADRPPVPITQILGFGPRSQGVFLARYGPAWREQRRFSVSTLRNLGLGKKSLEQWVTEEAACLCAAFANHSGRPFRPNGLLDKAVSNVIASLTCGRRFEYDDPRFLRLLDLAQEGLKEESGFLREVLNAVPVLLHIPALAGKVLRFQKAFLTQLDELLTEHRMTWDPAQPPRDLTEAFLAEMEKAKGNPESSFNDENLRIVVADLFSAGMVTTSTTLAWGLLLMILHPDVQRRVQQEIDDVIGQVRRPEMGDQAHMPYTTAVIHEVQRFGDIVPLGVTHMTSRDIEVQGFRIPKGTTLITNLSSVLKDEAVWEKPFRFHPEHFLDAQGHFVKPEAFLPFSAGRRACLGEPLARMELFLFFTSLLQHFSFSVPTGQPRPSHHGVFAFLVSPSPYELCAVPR
# Cytochrome P450 2C9 = Cytochrome P450 2C9 (Homo sapiens, UniProt P11712)
# Chain of Cytochrome P450 2C9 (P11712 whole entry): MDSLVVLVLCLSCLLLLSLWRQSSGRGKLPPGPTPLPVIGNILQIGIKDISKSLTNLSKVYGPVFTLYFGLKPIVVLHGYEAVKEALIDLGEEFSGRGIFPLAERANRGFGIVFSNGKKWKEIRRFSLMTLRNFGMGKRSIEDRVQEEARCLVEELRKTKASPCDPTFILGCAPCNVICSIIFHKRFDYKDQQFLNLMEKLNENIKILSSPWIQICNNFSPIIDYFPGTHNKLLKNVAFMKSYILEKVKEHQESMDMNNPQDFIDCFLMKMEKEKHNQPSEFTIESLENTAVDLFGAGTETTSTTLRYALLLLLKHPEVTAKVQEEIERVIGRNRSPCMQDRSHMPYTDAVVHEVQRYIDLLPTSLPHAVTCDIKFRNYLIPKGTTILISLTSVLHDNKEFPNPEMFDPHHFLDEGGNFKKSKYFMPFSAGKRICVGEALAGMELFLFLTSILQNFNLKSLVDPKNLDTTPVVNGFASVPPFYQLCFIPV
# [4] = molecular target: T1, Polyadenylate-binding protein 1 (Homo sapiens, UniProt P11940); test: PABP1 MLLE–PAM2 interaction inhibitors, dose response, miRNA deadenylation inhibitor project, biochemical, fluorescence polarization, Cy5-PAM2 peptide, secondary (AID 602260); assay type: functional; settings: read-out: IC50_Mean
# T1 sequence (P11940 whole entry): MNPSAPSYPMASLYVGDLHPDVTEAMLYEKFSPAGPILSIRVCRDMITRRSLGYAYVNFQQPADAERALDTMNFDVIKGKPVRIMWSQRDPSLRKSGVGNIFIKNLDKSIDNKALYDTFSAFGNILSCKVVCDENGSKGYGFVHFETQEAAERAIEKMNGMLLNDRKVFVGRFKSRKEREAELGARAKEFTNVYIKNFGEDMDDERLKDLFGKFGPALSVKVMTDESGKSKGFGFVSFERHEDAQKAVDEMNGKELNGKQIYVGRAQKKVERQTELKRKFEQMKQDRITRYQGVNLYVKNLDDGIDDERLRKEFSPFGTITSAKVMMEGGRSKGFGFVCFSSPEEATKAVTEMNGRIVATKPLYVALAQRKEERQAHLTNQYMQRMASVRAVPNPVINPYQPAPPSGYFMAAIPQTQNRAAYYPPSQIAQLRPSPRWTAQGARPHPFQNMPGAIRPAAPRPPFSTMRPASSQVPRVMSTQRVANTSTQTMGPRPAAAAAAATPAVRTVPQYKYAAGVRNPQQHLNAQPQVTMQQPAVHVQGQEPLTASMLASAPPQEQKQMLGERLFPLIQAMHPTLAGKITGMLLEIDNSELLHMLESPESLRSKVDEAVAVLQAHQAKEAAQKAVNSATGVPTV
# [5] = molecular target: T1, Polyadenylate-binding protein 1; test: PABP1 MLLE–PAM2 binding inhibitor potency, dose response, biochemical, fluorescence polarization, FITC-PAM2 peptide (AID 602259); assay type: functional; settings: read-out: IC50_Mean
# [6] = molecular target: T2, RNA-binding protein pos-1 (Caenorhabditis elegans, UniProt G5EF15); test: inhibitors of POS-1/mex-3 RNA binding, dose response, biochemical, fluorescence polarization (AID 1964);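 also: purified POS-1 fused to maltose binding protein made in E. coli; potency of compounds blocking POS-1 binding to fluorescent RNA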
# T2 sequence (G5EF15 whole entry): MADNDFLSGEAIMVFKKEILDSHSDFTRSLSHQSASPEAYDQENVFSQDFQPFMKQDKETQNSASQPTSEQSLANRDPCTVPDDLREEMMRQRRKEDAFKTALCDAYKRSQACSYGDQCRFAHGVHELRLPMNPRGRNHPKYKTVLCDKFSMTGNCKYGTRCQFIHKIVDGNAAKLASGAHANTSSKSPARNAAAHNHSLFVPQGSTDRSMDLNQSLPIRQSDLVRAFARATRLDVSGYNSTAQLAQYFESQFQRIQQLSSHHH
# [7] = molecular target: T3, Zinc finger protein mex-5 (Caenorhabditis elegans, UniProt Q9XUB2); test: MEX-5/TCR-2 RNA interaction inhibitors, dose response, biochemical, C. elegans, fluorescence polarization (AID 1960)
# T3 sequence (Q9XUB2 whole entry): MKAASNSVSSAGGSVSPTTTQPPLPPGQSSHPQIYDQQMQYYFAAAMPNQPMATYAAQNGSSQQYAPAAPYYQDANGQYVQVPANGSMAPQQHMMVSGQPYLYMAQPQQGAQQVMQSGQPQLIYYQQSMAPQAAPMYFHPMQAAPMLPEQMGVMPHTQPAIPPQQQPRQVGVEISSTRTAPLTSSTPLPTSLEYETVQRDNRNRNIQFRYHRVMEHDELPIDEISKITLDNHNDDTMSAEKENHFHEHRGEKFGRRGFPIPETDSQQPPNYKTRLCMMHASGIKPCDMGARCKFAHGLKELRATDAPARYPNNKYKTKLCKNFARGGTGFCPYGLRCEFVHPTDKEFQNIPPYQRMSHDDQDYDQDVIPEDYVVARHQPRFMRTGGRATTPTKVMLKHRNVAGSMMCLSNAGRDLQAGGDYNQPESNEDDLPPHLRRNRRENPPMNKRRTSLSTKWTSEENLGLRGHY
# Protein skinhead-1 = molecular target: T4, Protein skinhead-1 (Caenorhabditis elegans, UniProt P34707); assay type: functional
# T4 sequence (P34707 whole entry): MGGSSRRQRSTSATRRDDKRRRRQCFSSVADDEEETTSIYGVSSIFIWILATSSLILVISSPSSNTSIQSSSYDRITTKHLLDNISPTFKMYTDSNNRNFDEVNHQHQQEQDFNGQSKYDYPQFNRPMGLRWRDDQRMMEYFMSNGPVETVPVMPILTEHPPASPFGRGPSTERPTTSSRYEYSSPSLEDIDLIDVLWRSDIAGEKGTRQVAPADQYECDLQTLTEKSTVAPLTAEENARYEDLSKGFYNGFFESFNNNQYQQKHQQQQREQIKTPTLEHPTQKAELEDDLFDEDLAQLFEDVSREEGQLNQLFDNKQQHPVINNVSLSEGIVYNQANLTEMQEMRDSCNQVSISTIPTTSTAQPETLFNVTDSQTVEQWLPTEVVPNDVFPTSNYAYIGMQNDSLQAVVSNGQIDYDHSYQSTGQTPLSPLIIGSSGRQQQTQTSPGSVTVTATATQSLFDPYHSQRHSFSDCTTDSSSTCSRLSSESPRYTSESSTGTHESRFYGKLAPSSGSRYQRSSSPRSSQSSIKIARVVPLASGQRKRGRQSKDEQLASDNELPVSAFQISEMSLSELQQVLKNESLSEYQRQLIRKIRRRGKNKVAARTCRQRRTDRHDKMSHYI
# Cytochrome P450 3A4 = Cytochrome P450 3A4 (Homo sapiens, UniProt P08684);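 also: CYP3A4 tested as one member of a cytochrome P450 panel screen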
# Chain of Cytochrome P450 3A4 (P08684 whole entry): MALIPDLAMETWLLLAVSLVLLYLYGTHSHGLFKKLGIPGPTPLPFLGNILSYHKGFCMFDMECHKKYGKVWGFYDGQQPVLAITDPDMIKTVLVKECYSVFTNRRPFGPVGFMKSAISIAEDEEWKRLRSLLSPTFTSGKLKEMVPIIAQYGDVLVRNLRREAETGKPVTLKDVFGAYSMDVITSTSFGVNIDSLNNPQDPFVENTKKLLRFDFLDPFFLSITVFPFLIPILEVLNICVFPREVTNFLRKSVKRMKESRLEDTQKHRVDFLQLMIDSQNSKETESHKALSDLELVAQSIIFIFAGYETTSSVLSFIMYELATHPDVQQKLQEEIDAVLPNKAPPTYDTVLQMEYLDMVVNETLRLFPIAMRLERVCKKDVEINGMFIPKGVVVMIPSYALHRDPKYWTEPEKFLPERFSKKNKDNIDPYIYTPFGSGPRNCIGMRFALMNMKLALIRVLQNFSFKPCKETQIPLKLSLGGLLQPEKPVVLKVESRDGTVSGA
# Cytochrome P450 1A2 = molecular target: T5, Cytochrome P450 1A2 (Homo sapiens, UniProt P05177);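 also: PubChem cytochrome P450 panel assay, CYP1A2 panel member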
# T5 sequence (P05177 whole entry): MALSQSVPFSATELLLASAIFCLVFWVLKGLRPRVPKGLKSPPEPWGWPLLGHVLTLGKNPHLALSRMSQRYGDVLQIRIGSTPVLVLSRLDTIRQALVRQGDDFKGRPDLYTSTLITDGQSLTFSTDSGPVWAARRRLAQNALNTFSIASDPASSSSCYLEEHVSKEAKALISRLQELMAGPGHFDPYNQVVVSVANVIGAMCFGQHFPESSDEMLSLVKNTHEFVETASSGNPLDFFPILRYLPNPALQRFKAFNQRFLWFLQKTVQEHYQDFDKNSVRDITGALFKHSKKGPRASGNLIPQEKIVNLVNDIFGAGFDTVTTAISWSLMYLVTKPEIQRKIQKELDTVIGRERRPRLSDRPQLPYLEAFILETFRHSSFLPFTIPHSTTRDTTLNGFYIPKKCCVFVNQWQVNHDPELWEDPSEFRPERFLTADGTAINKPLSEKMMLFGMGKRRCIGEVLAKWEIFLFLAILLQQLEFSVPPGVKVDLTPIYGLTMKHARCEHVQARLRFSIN
# [8] = HEp-2 cell cytotoxicity, dose response, cytotoxicity control for RSV inhibitor project, HTS (AID 2410); assay type: functional; settings: human respiratory syncytial virus
# [9] = Luminescence Cell-Based Dose Confirmation HTS to Identify Activators of 5'UTR Stem-Loop Driven Alpha-Synuclein mRNA Translation in H4 Neuroglioblastoma Cells. [Related pubchem assays: 1829 (Project Summary), 1814 (Primary HTS)]; assay type: functional
# [10] = Luminescence Cell-Based Dose Response HTS to Identify Activators of Luciferase Translation or Activity in H4 […] Cells. [Related pubchem assays: 1829 (Project Summary), 1814 (Primary HTS)]; assay type: functional
# H4 = test: Luminescence Cell-Based Dose Response HTS to Identify Activators of 5'UTR Stem-Loop Driven Prion Protein mRNA Translation in H4 Neuroglioblastoma Cells. [Related pubchem assays: 1829 (Project Summary), 1814 (Primary HTS)]; assay type: functional; settings: Homo sapiens
# Cytochrome P450 2C19 = Cytochrome P450 2C19 (Homo sapiens, UniProt P33261); test: Cytochrome panel assay with activity outcomes. Panel member name: p450-cyp2c19 Compounds with AC50 equal or less than 10 uM are considered active; assay type: functional; settings: read-out: AC50
# Chain of Cytochrome P450 2C19 (P33261 whole entry): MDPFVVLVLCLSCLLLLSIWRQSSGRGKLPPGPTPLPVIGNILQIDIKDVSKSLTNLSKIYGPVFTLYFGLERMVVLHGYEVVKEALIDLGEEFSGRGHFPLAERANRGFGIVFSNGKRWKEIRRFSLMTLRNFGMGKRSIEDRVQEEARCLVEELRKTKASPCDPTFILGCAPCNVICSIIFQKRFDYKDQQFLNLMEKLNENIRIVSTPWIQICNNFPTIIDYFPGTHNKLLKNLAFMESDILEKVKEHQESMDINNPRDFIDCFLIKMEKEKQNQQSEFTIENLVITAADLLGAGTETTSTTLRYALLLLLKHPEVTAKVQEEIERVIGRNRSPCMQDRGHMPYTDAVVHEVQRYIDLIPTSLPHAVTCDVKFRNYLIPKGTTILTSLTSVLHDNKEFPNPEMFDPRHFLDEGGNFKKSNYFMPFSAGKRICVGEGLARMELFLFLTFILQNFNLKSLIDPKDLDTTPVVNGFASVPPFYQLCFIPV
compound,measurement,setting,value
Cc1cc(N2CCN(S(=O)(=O)c3ccc(C)c(C)c3)CC2)c2ccccc2n1,EC50,[1],> 120 µM (not active)
same,EC50,[2],50 µM (active)
same,EC50,[3],> 120 µM (not active)
COc1ccc(CNc2ccnc(-c3cccc(C#N)c3)n2)c(OC)c1,AC50,Cytochrome P450 2D6,12.6 µM (inconclusive)
same,AC50,Cytochrome P450 2C9,0.501 µM (inconclusive)
O=C(NCSc1ccccc1)c1ccccc1,IC50,[4],> 66 µM (inactive)
same,IC50,[5],> 66 µM (inactive)
COC(=O)CNC(=O)C1Nc2ccc(OC(F)(F)F)cc2C2C=CCC12 (centres undefined),EC50,[6],> 300 µM (not active)
same,EC50,[7],> 300 µM (not active)
Cc1cccc(NC(=O)NCCN2CCCCC2)c1,IC50,Protein skinhead-1,> 100 µM (inactive)
CC(=O)Nc1ccc(S(=O)(=O)Nc2nnc(CC(C)(C)C)s2)cc1,IC50,[4],> 66 µM (inactive)
same,IC50,[5],> 66 µM (inactive)
Cc1n[nH]c(O)c1N=Nc1ccc(S(N)(=O)=O)cc1,EC50,[6],78.9 µM (active)
same,EC50,[7],9.43 µM (inconclusive)
CC1(C)Cc2c(cnn2-c2cccc(F)c2)C(NC(=O)CSc2ccccn2)C1 (centres undefined),EC50,[6],> 300 µM (not active)
same,EC50,[7],> 150 µM (not active)
Cc1onc(-c2ccccc2Cl)c1C(=O)NCCn1ccc2ccccc21,IC50,Protein skinhead-1,> 100 µM (inactive)
O=C(Nc1ccc(Cl)cn1)c1cc2c(s1)-c1ccccc1OC2,IC50,Protein skinhead-1,> 100 µM (inactive)
CCc1ccc(Nc2ncccc2C#N)cc1,AC50,Cytochrome P450 2D6,20 µM (inconclusive)
same,AC50,Cytochrome P450 3A4,28.2 µM (inconclusive)
COCCNC(=O)C1Nc2ccc(C(F)(F)F)cc2C2C=CCC12 (centres undefined),EC50,[6],> 300 µM (not active)
same,EC50,[7],> 300 µM (not active)
S=C(Nc1ccc2nc(-c3ccccn3)c(-c3ccccn3)nc2c1)N1CCOCC1,IC50,[4],> 66 µM (inactive)
same,IC50,[5],40.3 µM (inactive)
CCCCn1c(SCC(=O)N2c3ccccc3CCc3ccccc32)nc2c1c(=O)n(C)c(=O)n2C,EC50,[1],> 120 µM (not active)
same,EC50,[2],14.2 µM (active)
same,EC50,[3],15 µM (active)
O=C(c1csnn1)N1CCC2(CC1)CCN(c1ccccc1)CC2,AC50,Cytochrome P450 2D6,7.94 µM (inconclusive)
same,AC50,Cytochrome P450 1A2,15.8 µM (inconclusive)
CSc1ccc(-c2cc(=O)c3ccccc3o2)cc1,CC50,[8],18.7 µM (active)
same,IC50,Protein skinhead-1,23.9 µM (active)
Sc1nnc(Cc2sc(-c3ccccc3)nc2-c2ccccc2)o1,EC50,[1],18.9 µM (active)
same,EC50,[2],> 120 µM (not active)
same,EC50,[3],> 120 µM (not active)
O=C(CSc1ncnc2scc(-c3ccc(Cl)cc3)c12)NCc1ccc2c(c1)OCO2,IC50,Protein skinhead-1,> 100 µM (inactive)
COc1ncnc2c1N=C1CC(C)(C)CC(NCCC(=O)O)=C1S2,EC50,[6],> 300 µM (not active)
same,EC50,[7],13.8 µM (active)
CC(C)OC(=O)c1nn2c(C(F)(F)F)cc(-c3ccc(Br)o3)nc2c1Br,EC50,[6],> 300 µM (not active)
same,EC50,[7],> 300 µM (not active)
O=C(Nc1ccc(Cl)cn1)c1ccccc1F,IC50,Protein skinhead-1,16.3 µM (active)
FC(F)(F)c1cc(CN2CCC3(CCNCC3)CC2)cc(C(F)(F)F)c1,AC50,Cytochrome P450 2D6,25.1 µM (inconclusive)
same,AC50,Cytochrome P450 3A4,31.6 µM (inconclusive)
COc1ccc(NC(=O)Nc2sc(NS(=O)(=O)c3ccccc3)nc2C)cc1,IC50,[4],> 66 µM (inactive)
same,IC50,[5],> 66 µM (inactive)
N=c1nc(SCCC(=O)O)ss1,EC50,[1],13.4 µM (active)
same,EC50,[2],15.8 µM (active)
same,EC50,[3],14 µM (active)
FC(F)(F)c1cc(Oc2ccccc2Cl)nc(-c2ccccn2)n1,EC50,[1],7.86 µM (active)
same,EC50,[2],> 120 µM (not active)
same,EC50,[3],6.37 µM (active)
Cc1cccc(N=Nc2c(O)[nH]c3ccc(Br)cc23)c1,EC50,[6],68.3 µM (active)
same,EC50,[7],26.9 µM (inconclusive)
O=C(NCCc1ccccn1)c1ccc(S(=O)(=O)N2CCCCCC2)cc1,IC50,Protein skinhead-1,> 100 µM (inactive)
CC(=O)c1cccc(NC(=S)NC(=O)c2ccccc2Br)c1,IC50,[4],> 66 µM (inactive)
same,IC50,[5],> 66 µM (inactive)
CCc1c(O)nc(SCc2nc(O)c3ccccc3n2)nc1O,IC50,[4],> 66 µM (inactive)
same,IC50,[5],> 66 µM (inactive)
Cc1ccc(Nc2ccc([N+](=O)[O-])ccc2=O)cc1,EC50,[6],> 300 µM (not active)
same,EC50,[7],> 300 µM (not active)
Brc1ccc(-c2nnc(-c3cccnc3)o2)cc1,IC50,Protein skinhead-1,25.1 µM (active)
Cc1ccc2nc(-c3cccnc3)c(NC3CCCCC3)n2c1,IC50,[4],41.4 µM (inactive)
same,IC50,[5],34.7 µM (inactive)
CCC(=O)/C=C1/Sc2ccc(OC)cc2N1CCO,IC50,[4],> 66 µM (inactive)
same,IC50,[5],> 66 µM (inactive)
O=C(NCc1ccc(Cl)cc1)c1ccc(-c2ccc(F)c(F)c2)c2ccoc12,IC50,Protein skinhead-1,> 100 µM (inactive)
FC(F)(F)C(F)(F)C(F)(F)c1nc2nc(Cl)c(Cl)[nH]c-2n1,IC50,[4],> 66 µM (inactive)
same,IC50,[5],> 66 µM (inactive)
N#CC(=Cc1cccs1)c1nc(-c2ccc(Cl)cc2)cs1,IC50,Protein skinhead-1,> 100 µM (inactive)
Cc1ccc(-n2cnc3c(sc4nccc(N(C)C)c43)c2=O)cc1,EC50,[9],> 120 µM (not active)
same,EC50,[10],75.7 µM (active)
same,EC50,H4,15.6 µM (active)
Cc1nnc(O)nc1N/N=C/c1ccc(O)c([N+](=O)[O-])c1,EC50,[6],169 µM (active)
same,EC50,[7],65.5 µM (active)
C/C(=N/OC(=O)c1cccc(Cl)c1)c1nccs1,AC50,Cytochrome P450 2C19,20 µM (inconclusive)
same,AC50,Cytochrome P450 2D6,35.5 µM (inconclusive)
same,AC50,Cytochrome P450 1A2,31.6 µM (inconclusive)
COC1=C(OC)C(=O)c2ccccc2C1=O,AC50,Cytochrome P450 2C19,31.6 µM (inconclusive)
same,AC50,Cytochrome P450 2D6,39.8 µM (inconclusive)
same,AC50,Cytochrome P450 2C9,39.8 µM (inconclusive)
